Experiment [1] concerns Cavia porcellus. Nature of the experiment: In vivo percent inhibition against antigen induced increase in intranasal pressure in actively sensitized guinea pig administered intravenously with 1 mg/Kg of compound. Format: functional.
The target of experiment [2] is T1, Prostaglandin D2 receptor (Homo sapiens, UniProt Q13258).
T1 sequence (Q13258 whole entry): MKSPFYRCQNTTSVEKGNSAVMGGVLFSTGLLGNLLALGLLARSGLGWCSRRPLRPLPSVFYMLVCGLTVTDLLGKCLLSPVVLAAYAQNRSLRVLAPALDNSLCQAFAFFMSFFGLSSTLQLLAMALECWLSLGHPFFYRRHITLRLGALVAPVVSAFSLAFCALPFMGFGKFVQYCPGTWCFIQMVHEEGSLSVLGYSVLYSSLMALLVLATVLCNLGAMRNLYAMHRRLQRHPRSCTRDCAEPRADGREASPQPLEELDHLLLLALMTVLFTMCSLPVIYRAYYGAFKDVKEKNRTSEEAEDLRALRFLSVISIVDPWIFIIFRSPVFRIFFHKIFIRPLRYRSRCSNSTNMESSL
The experiment in a line: Prostaglandin D2 receptor antagonist activity, evaluated by inhibition of [3H]PGD-2 binding to human platelet membranes.

Experiment [3] has as its target T1, Prostaglandin D2 receptor. Nature of the experiment: Concentration required to inhibit the PGD-2 evoked cAMP formation in human platelets. Format: functional. On the technique in general: Changes in cAMP serve as a functional read-out for many G protein-coupled receptors.
Experiment [4] concerns Cavia porcellus. The experiment in a line: In vivo inhibition of antigen-induced increase in intranasal pressure in actively sensitized guinea pig administered perorally with 3 mg/Kg compound, 10 minutes before the antigen challenge. As to conditions: inhaled or nasal. Format: functional.
Experiment [5] relates to Cavia porcellus. Nature of the experiment: Percent inhibition against increase in specific airway resistance by antigen inhalation in conscious guinea pig administered perorally with 10 mg/Kg of compound, 1 hr before the test. Format: functional.
Experiment [6] deals with Cavia porcellus. The experiment in a line: Effective dose required to inhibit conjuctival microvascular permeability caused by topical application of 0.1% PGD-2 in guinea pig administered perorally with compound, 1 hour before the test. Format: functional.
Experiment [7] has as its system Cavia porcellus. Nature of the experiment: Effective dose required to inhibit conjuctival microvascular permeability caused by topical application of 0.1% antigen in guinea pig administered perorally with compound, 1 hour before the test. Format: functional.
The test system of experiment [8] is Cavia porcellus. Nature of the experiment: Compound at 10 mg/kg was tested for the inhibition of increase in eosinophil number in bronchoalveolar lavage fluid at 72 hr after inhalation of aerosol antigen in actively sensitized guinea pig. Format: functional. To be noted: Lung, inhaled or nasal.
For experiment [9], the system named is Cavia porcellus. The experiment in a line: Compound at 10 mg/kg was tested for the inhibition of increase in eosinophil number in nasal lavage fluid at 5 hr after intranasal antigen challenge in actively sensitized guinea pig. Format: functional. As to conditions: inhaled or nasal.
Experiment [10] has as its system Cavia porcellus. Nature of the experiment: In vivo inhibition of antigen-induced increase in intranasal pressure in actively sensitized guinea pig administered perorally with 10 mg/Kg compound, 10 minutes before the antigen challenge. To be noted: oral. Format: functional.
Experiment [11] has as its system Cavia porcellus. The experiment in a line: In vivo inhibition of antigen-induced increase in intranasal pressure in actively sensitized guinea pig administered intravenously with 1 mg/Kg compound, 10 minutes before the antigen challenge. Format: functional.
The subject of experiment [12] is Cavia porcellus. The experiment in a line: Percent inhibition against antigen induced increase in intranasal pressure in actively sensitized guinea pig administered intravenously with 1 mg/Kg of compound. Format: functional.

Broadly, the Inhibition is how much of the control response was suppressed. A word on the IC50: it is the concentration that gives 50% inhibition. A lower IC50 goes with higher potency. By inhibition in vivo is commonly meant the relative decrease from the control value, in per cent. For orientation: ED50 means the dose at which the effect has come halfway, by size or by number of responders.

Turning to `CC1(C)[C@H]2C[C@H](C/C=C/CCCC(=O)O)[C@@H](NC(=O)c3cccs3)[C@@H]1C2`, in the experiment with Cavia porcellus [1], the Inhibition stood at 38%. For the same molecule, the IC50 in experiment [2] worked out at 3300 nM; in experiment [3] it was 15 nM.

On to `CC1(C)[C@H]2C[C@H](C/C=C/CCCC(=O)O)[C@@H](NC(=O)c3csc4ccc(F)cc34)[C@@H]1C2`, for which the inhibition in vivo at 3 mg/kg in the experiment on Cavia porcellus [4] was found to be 86%. Besides, the Inhibition with Cavia porcellus [5] is reported as 69%. Further, the ED50 in the experiment on Cavia porcellus [6] came to 3.5 mg/kg; with Cavia porcellus [7], 8.9 mg/kg. In addition, the IC50 was 0.42 nM in experiment [2] and 3.2 nM in experiment [3].

On to `CC1(C)[C@H]2C[C@H](C/C=C/CCCC(=O)O)[C@@H](NC(=O)c3csc4ccc(O)cc34)[C@@H]1C2`, for which the inhibition in vivo at 10 mg/kg with Cavia porcellus [8] came to 43%; in the experiment with Cavia porcellus [9], 80%; in the experiment on Cavia porcellus [10], 96%. Besides, the inhibition in vivo at 3 mg/kg in the experiment on Cavia porcellus [4] stood at 64%. Moreover, the Inhibition with Cavia porcellus [5] was 70%. Besides, the ED50 was determined as 0.12 mg/kg in the experiment with Cavia porcellus [6] and 2 mg/kg in the experiment on Cavia porcellus [7]. Besides, the IC50 came out at 1.9 nM in experiment [2] and 0.9 nM in experiment [3].

For the molecule `CC1(C)[C@H]2C[C@H](C/C=C\CCCC(=O)O)[C@@H](NC(=O)c3ccc(-c4ccccc4)cc3)[C@@H]1C2`, the inhibition in vivo at 1 mg/kg in the experiment on Cavia porcellus [11] is 30%. Also, the IC50 in [2] stood at 47 nM; in [3] it was 470 nM.

For `CC1(C)[C@H]2C[C@H](C/C=C/CCCC(=O)O)[C@@H](NC(=O)c3ccsc3)[C@@H]1C2`, the Inhibition in the experiment with Cavia porcellus [12] was found to be 77%; in the experiment with Cavia porcellus [5], 15%. Moreover, the ED50 with Cavia porcellus [6] was 3.5 mg/kg; with Cavia porcellus [7], 9.5 mg/kg. The IC50 in [2] turned out to be 1600 nM; in experiment [3], 38 nM.

For the origin of these results see ChEMBL document CHEMBL1144892, “Synthesis and biological activity of various derivatives of a novel class of potent, selective, and orally active prostaglandin D2 receptor antagonists. 2. 6,6-Dimethylbicyclo[3.1.1]heptane derivatives” (J Med Chem, 2003).
